This note sets out measurements from patent US20060251638A1, “Cytoprotection through the use of hif hydroxylase inhibitors” (priority 2003, published 2006).

In assay [1] the test system is gene encoding adrenomedullin. As to the kind of experiment: Adrenomedullin gene expression in Hep3B cells (microarray). The class given is cell-based, human. The conditions noted are these: 25 μM compound, 6 hrs, average of two determinations. The protocol:
Hep3B cells (ATCC No. HB-8064) were grown in DMEM containing 8% fetal bovine serum. Hep3B cells were seeded into 6-well culture dishes at ˜500,000 cells per well. After 8 hours, the media was changed to DMEM containing 0.5% fetal bovine serum and the cells were incubated for an additional 16 hours. Compound A, compound B, compound C, compound G, or compound H was added to the cells (25 μM final concentration) and the cells were incubated for various times. Control cells were incubated with vehicle (DMSO) with no compound treatment. Harvested cells were assessed for cell viability (GUAVA), or added to RNA extraction buffer (RNeasy, Qiagen) and stored at −20° C. for subsequent RNA purification.
RNA was precipitated in 0.3 M sodium acetate (pH 5.2), 50 ng/ml glycogen, and 2.5 volumes of ethanol for one hour at −20° C. Samples were centrifuged and pellets were washed with cold 80% ethanol, dried, and resuspend in water. Double stranded cDNA was synthesized using a T7-(dT)24 first strand primer (Affymetrix, Inc., Santa Clara Calif.) and the SUPERSCRIPT CHOICE system (Invitrogen) according to the manufacturer's instructions. The final cDNA was extracted with an equal volume of 25:24:1 phenol:chloroform:isoamyl alcohol using a PHASE LOCK GEL insert (Brinkman, Inc., Westbury N.Y.). The aqueous phase was collected and cDNA was precipitated using 0.5 volumes of 7.5 M ammonium acetate and 2.5 volumes of ethanol. Alternatively, cDNA was purified using the GENECHIP sample cleanup module (Affymetrix) according to the manufacturer's instructions.
Biotin-labeled cRNA was synthesized from the cDNA in an in vitro […] (IVT) reaction using a BIOARRAY HighYield RNA transcript labeling kit (Enzo Diagnostics, Inc., Farmingdale N.Y.) according to the manufacturer's instructions. Final labeled product was purified and fragmented using the GENECHIP sample cleanup module (Affymetrix) according to the manufacturer's instructions.
Hybridization cocktail was prepared by bringing 5 μg probe to 100 μl in 1× hybridization buffer (100 mM MES, 1 M [Na^+], 20 mM EDTA, 0.01% Tween 20), 100 μg/ml herring sperm DNA, 500 μg/ml acetylated BSA, 0.03 nM contol oligo B2 (Affymetrix), and 1× GENECHIP eukaryotic hybridization control (Affymetrix). The cocktail was sequentially incubated at 99° C. for 5 minutes and 45° C. for 5 minutes, and then centrifuged for 5 minutes. The […] array (Affymetrix) was brought to room temperature and then prehybridized with 1× hybridization buffer at 45° C. for 10 minutes with rotation. The buffer was then replaced with 80 μl hybridization cocktail and the array was hybridized for 16 hours at 45° C. at 60 rpm with counter balance. Following hybridization, arrays were washed once with 6×SSPE, 0.1% Tween 20, and then washed and stained using R-phycoerythrin-conjugated streptavidin (Molecular Probes, Eugene Oreg.), goat anti-streptavidin antibody (Vector Laboratories, Burlingame Calif.), and a GENECHIP Fluidics Station 400 instrument (Affymetrix) according to the manufacturer's EukGE-WS2v4 protocol (Affymetrix). Arrays were analyzed using a GENEARRAY scanner (Affymetrix) and Microarray Suite software (Affymetrix).
RNA quality was monitored by capillary electrophoresis (Agilent Bioanalyzer). […] Array performance was analyzed with Affymetrix MicroArray Suite (MAS) software and individual probe sets were assigned “present”, “marginal, and “absent” calls according to software defaults. […]

Assay [2] relates to Human umbilical vein endothelial cells (HUVEC). Nature of the assay: TNF-α induced apoptosis in HUVEC (Annexin V immunostaining, morphology). The class given is cell-based. As to the method:
Human umbilical vein endothelial cells (HUVEC) were plated in DMEM containing 0.5% fetal bovine serum that was supplemented with 1 ng/ml of vascular endothelial growth factor. After overnight culture, the cells were washed with PBS and incubated for an additional 24 hours in DMEM containing 0.5% fetal bovine serum and either vehicle control (DMSO) or 25 μM of compound G. The cell cultures were subsequently washed and re-cultured with DMEM containing 0.5% fetal bovine serum containing 20 ng/ml TNF-α for an additional 4 or 8 hours. The cells were then harvested and immunostained with either FITC-conjugated isotype control or FITC-conjugated Annexin V for identification and determination of cells undergoing apoptosis. (Koopman et al. (1994) Blood 84:1415-1420.) Annexin V preferentially binds negatively charged phospholipids, like phosphatidylserine, which are associated with plasma membrane changes in apoptotic cells. Annexin V binding allows for the identification and quantitation of cells at early stages of apoptosis, when apoptosis occurs in the absence of DNA fragmentation, and the discrimination between cell death associated with apoptosis or with necrosis.
In replicate HUVEC cultures treated as described above, light micrographs were taken of cells treated with vehicle control (DMSO) and compound G following stimulation with 20 ng/ml TNF-α for 4 and 8 hours (FIG. 6). […]

On to `O=C(O)CNC(=O)c1ncc2cc(Oc3ccccc3)ccc2c1O` [Compound G, [(4-Hydroxy-7-phenoxy-isoquinoline-3-carbonyl)-amino]-acetic acid], for which the “Adrenomedullin gene expression, fold-increase above non-treated control” value in assay [1] is 3.278 fold. In addition, the “annexin V immunostaining (mean fluorescence intensity) versus TNF-α alone” value in assay [2] (25 μM for 24 hours prior to 20 ng/ml TNF-α for 4 or 8 hours) is “reduced annexin V immunostaining”. Moreover, the “HUVEC morphology after TNF-α (light micrographs)” value in assay [2] (25 μM prior to 20 ng/ml TNF-α for 4 and 8 hours) was “viable and normal morphology”.
